The values below come from patent US7476670B2, “Purine derivatives, method for preparing, pharmaceutical compositions and novel use” (Aventis Pharma S.A., priority 2003, dated 2009).

One test concerns the target T1, SRC kinase (Homo sapiens, UniProt P12931).
T1 construct: purchased Upstate Biotechnology 14-117
In words: Assay for inhibition of SRC kinase activity. It is filed as biochemical. The settings on record: fluorescence polarization, read-out: percentage inhibition at 20 μM. In short, it runs like this:
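Enzyme (12 U/ml final) preincubated 5 min with inhibitor, then PolyGluTyr 4/1 (150 ng/ml) and ATP (5 μM) added in HEPES/NaOH pH 7.6 with MgCl2, MnCl2 and Na2VO4. After 20 min at ambient temperature, phosphopeptide detected by fluorescence polarization with labelled anti-phosphopeptide antibody; percent inhibition reported at 20 μM.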

The next test concerns Casein Kinase II. Put plainly: Assay for inhibition of casein kinase II activity. The settings on record: [33P]ATP. In kind it is biochemical. On the procedure: The inhibition of the kinase activity is determined by measuring the phosphorylation of its substrate peptide.
The assay is carried out in a final volume of 50 μl.
(§1) The incubation buffer is as follows:
• 30 mM MES pH 6.9 • 15 mM MgCl2 • 195 mM KCl • 7.25 mM DTT 5 μl of the 10-times concentrated inhibitor are added to 25 μl of incubation buffer containing 1 U/μl final concentration of the enzyme (Tebu, SE-124); 10 μl of incubation buffer containing 60 μM final concentration of peptide substrate are then added, and, finally, 10 μl of incubation buffer containing 25 μM ATP and radiolabeled ATP, [^33P]ATP (0.25 μCi), are added. The reaction is stopped after incubation for 30 minutes at ambient temperature. • Results obtained expressed as percentage inhibition at 20 μM • Example 8 93% • Example 30 97% 8) Assay for Inhibition for CAN Kinase II Activity

The next test concerns the target FAK (Homo sapiens, UniProt Q05397). Put plainly: Assay for inhibition of FAK activity (autophosphorylation). In kind it is biochemical. Particulars: fluorescence polarization, ATP 1 μM; read-out: IC50s expressed as micromolar. On the procedure: The inhibition of the kinase activity is determined by fluorescence polarization, the autophosphorylation of FAK is detected by adding an anti-phosphoprotein antibody coupled to a fluorescent label.
The assay is carried out in a final volume of 30 μl; all the reagents are prepared in a buffer: • 50 mM HEPES pH 7.5 • 0.03% triton X100 • 10 mM MgCl2 • 5% Glycerol • 1 mM DTT 10 μl of the 10-times concentrated inhibitor are added to 5 μl of enzyme (100 ng final concentration), and 5 μl of incubation buffer and 10 μl of ATP (1 μM final concentration) are added.
Background: In fluorescence polarisation assays a small probe gives low polarisation when free and higher when bound to something large.

Test [1] has as its target Cyclin Dependent kinase 1 (CDK1) (Homo sapiens, UniProt P06493). Put plainly: Assay for inhibition of CDK1 activity. In kind it is biochemical. Particulars: [33P]ATP, read-out: percentage inhibition at 20 μM. On the procedure:
The inhibition of the kinase activity of Cyclin Dependent kinase 1 (CDK1) is determined by measuring the phosphorylation of its substrate peptide.
The test is carried out in a final volume of 50 μl.
as §1
• 50 mM Tris/HCl pH 7.5 • 10 mM MgCl2 • […] Na2VO4 • 2 mM DTT • 40 mM Beta-glycerophosphate • 0.1 mg/ml BSA 5 μl of the 10-times concentrated inhibitor are added to 25 μl of incubation buffer containing 0.04 U/μl final concentration of the enzyme; 10 μl of incubation buffer containing 12.5 μM final concentration of peptide substrate are then added and, finally, 10 μl of incubation buffer containing 50 μM ATP and radiolabeled ATP, [^33P]ATP (0.5 μCi), are added. The reaction is stopped after incubation for 40 minutes at ambient temperature. • Results obtained expressed as percentage inhibition at 20 μM • Example 8 93% • Example 30 99% 5) Assay for Inhibition of Abl Activity

In the next test the test system is Candida albicans. In words: Minimum inhibitory concentration in liquid medium, micro method (NCCLS M27-A). In kind it is cell-based. The settings on record: at least 80% inhibition of growth, read after 24-48 h at 37° C., RPMI 1640, read-out: MIC Candida albicans. On the procedure:
(§2) The assay is carried out in a final volume of 40 μl; all the reagents are prepared in a buffer: • 50 mM HEPES pH 7.5 • 0.03% triton X100 • 10 mM MgCl2 • 5% Glycerol • 1 mM DTT 10 μl of the 10-times concentrated inhibitor are added to 5 μl of enzyme (75 ng final concentration), and 5 μl of peptide (1 μM final concentration), then 2.5 μl of incubation buffer containing 40 μM ATP and 2.5 μl of radiolabeled ATP, [^33P]ATP (500 nCi), are added. After incubation for 15 minutes at ambient temperature, 10 μl of incubation buffer containing 192 nM of substrate. […] Reference method for broth dilution antifungal susceptibility testing of yeasts. Approved Standard M27-A. NCCLS, Villanova, Pa.); the minimum concentration with which a visible decrease is observed in the cloudiness of the cell growth (at least 80% compared to a control without product) is the Minimum Inhibitory Concentration (MIC) of the antifungal agent with respect to the strain tested.
(§3) RPMI 1640 medium (liquid) without L-glutamine is supplemented with L-glutamine (0.3 g/l or 10.5 ml of a solution at 200 mM) and buffered with 34.54 g/l (0.165 M) of morpholinepropanesulfonic acid (MOPS). The medium is sterilized by filtration. 100 μl of RPMI medium are distributed into each well of a 96-well plate. The appropriate volume. of the antifungal solution is distributed in the first column of the microplate and supplemented with 200 μl of medium. Doubling dilutions are made so as to establish a range of 11 concentrations in each line of the microplate. The 12th well of each row will serve as a growth control. The cell suspension is prepared from a culture (liquid or agar) or from a frozen vial, and is diluted in RPMI medium so as to obtain a cell suspension at 5×10^3−2×10^4 cells/ml. 100 μl of the cell suspension are distributed in the microplate. For all species of Candida, the MIC is read after 24-48 h, and for Cryptococcus and Aspergillus after 48-72 h, of incubation at 37° C. in a normal atmosphere. The MIC is read by visual reading, determining the well which contains the lowest dose of antifungal agent which causes at least 80% inhibition of the growth of the fungus.

For the next test, the system named is Candida glabrata. The test is described as above. The settings on record: Nakaseomyces glabratus; at least 80% inhibition of growth, read after 24-48 h at 37° C., RPMI 1640; read-out: MIC Candida glabrata. In kind it is cell-based. On the procedure: as §2, §3

Chain of Cyclin Dependent kinase 1 (CDK1) (P06493 whole entry, species assumed): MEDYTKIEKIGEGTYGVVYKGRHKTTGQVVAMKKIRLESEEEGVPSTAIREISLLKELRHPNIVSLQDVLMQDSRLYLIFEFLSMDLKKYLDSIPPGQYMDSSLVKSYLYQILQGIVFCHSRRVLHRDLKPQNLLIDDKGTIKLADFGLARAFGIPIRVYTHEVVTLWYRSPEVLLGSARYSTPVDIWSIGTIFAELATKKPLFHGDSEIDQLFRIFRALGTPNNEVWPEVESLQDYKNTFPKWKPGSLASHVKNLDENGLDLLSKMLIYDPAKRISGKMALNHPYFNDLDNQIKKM
Chain of Cyclin Dependent kinase 1 (CDK1) (P14635 whole entry partner, species assumed): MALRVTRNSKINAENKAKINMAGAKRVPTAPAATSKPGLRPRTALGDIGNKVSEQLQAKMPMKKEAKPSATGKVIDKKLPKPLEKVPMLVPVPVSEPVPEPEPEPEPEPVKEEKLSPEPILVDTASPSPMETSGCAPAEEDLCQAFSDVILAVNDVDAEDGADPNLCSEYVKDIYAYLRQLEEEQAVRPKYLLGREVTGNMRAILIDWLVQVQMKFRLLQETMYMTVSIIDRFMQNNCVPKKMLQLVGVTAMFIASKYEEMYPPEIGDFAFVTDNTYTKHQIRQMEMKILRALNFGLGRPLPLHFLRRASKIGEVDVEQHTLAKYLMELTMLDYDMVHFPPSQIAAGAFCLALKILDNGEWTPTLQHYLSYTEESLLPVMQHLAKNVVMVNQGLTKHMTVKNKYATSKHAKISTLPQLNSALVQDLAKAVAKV
Chain of FAK (Q05397 whole entry, species assumed): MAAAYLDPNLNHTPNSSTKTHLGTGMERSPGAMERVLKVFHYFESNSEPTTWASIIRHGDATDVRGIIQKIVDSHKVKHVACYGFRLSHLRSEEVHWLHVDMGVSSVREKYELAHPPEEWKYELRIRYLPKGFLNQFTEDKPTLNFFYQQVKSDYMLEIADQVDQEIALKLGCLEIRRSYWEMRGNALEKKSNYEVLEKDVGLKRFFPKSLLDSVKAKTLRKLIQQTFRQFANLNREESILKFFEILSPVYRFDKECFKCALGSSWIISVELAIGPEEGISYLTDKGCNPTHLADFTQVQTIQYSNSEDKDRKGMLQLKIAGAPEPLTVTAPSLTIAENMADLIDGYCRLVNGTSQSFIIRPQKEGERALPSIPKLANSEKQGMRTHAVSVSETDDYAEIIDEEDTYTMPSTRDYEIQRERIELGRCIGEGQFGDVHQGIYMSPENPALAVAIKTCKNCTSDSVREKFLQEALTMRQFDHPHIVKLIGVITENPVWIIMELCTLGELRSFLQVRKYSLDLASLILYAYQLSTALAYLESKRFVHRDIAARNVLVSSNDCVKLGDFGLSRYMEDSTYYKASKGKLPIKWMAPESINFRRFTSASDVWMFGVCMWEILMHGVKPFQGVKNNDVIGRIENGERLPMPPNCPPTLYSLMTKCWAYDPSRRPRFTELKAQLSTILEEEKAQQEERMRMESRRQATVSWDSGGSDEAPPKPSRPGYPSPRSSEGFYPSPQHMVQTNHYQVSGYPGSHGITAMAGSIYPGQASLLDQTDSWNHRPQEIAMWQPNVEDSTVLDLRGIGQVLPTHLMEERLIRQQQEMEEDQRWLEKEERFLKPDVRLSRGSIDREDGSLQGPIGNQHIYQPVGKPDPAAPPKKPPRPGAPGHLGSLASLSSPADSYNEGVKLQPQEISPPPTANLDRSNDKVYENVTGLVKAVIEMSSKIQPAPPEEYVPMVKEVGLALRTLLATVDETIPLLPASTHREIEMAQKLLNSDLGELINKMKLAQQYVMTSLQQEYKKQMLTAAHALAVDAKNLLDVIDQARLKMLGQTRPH
T1 sequence (P12931 whole entry): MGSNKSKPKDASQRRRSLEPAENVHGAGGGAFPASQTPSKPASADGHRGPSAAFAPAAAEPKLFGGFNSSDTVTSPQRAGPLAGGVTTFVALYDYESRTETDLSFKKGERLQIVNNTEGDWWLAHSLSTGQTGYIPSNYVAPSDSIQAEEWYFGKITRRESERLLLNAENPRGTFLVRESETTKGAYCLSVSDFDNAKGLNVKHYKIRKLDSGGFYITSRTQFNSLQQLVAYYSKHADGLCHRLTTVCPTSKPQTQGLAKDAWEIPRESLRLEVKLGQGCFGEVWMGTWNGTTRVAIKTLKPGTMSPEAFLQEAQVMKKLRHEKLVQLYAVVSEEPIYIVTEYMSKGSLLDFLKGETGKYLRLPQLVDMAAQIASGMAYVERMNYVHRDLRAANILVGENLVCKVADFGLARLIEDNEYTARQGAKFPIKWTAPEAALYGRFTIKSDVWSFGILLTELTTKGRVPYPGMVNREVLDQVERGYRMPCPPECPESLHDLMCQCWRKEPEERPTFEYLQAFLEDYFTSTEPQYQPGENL

Consider `Cl.Cl.N[C@H]1CC[C@H](Nc2nc(N3CCc4cc([N+](=O)[O-])ccc43)c3nc[nH]c3n2)CC1` [Example 30, Trans-N-[6-(2,3-dihydro-5-nitro-1H-indol-1-yl)-9H-purin-2-yl]-1,4-cyclohexanediamine dihydrochloride], for which the inhibition at 20 µM (at SRC kinase; in test [1]) was 99% each time. Moreover, the “percentage inhibition at 20 μM” value in the test with Casein Kinase II came to 97%. In addition, the IC50 on FAK stood at 1 µM. In addition, the MIC was determined as 32 µg/mL in the test with Candida albicans and 64 µg/mL in the test with Candida glabrata.

With `Cl.N[C@H]1CC[C@H](Nc2nc(-n3cnc4cc(Cl)c(Cl)cc43)c3nc[nH]c3n2)CC1` [Example 8, Trans-N-[6-(5,6-dichloro-1H-benzimidazol-1-yl)-9H-purin-2-yl]-1,4-cyclohexanediamine hydrochloride], the values for the inhibition at 20 µM (at SRC kinase; in test [1]) were 98% and 93%, respectively. Also, in the test with Casein Kinase II, the “percentage inhibition at 20 μM” value is 93%. Moreover, the IC50 at FAK is 2 µM. Also, the MIC with Candida albicans and with Candida glabrata was 16 µg/mL in each case.

As a reminder, the inhibition is the percentage by which the read-out fell short of the control. As usually defined, the MIC is the lowest concentration found to suppress growth.
